The source of these data is patent US7915257B2, “Use of triazinetrione sulfones for combating coccidiosis” (Bayer Animal Health GmbH, priority 2000, dated 2011).

Like-named read-outs stand apart in the source and are kept apart here.

The test system of data set [1] is Isospora suis. Particulars: experimentally infected piglets; cited from earlier work.
In data set [2] the test system is Eimeria tenella, E. maxima and E. acervulina. Put plainly: Efficacy of ponazuril on artificially induced mixed infection of chickens, cage housing. In kind it is in vivo. Here is the method: Groups each of 44 birds (4 replicates per treatment of 11 birds in each case) were formed and, on day 14, infected with sporulated oocysts. Ponazuril was administered each day on day 10-24 or 17-24. Three dosages in the feed were used in both treatment periods: 5 ppm, 10 ppm and 20 ppm. The result of the treatment was determined by various clinical and parasitological parameters, including the mortality caused by the coccidiosis and the oocyst excretion in the faeces.

The test system of data set [3] is Eimeria spp. (principal species E. ovinoidalis and E. crandallis). Put plainly: Field trial, treatment of natural coccidiosis infections of grazing lambs. In kind it is in vivo, Sheep. Particulars: 5% w/v suspension as drench on day 7; toltrazuril 20 mg/kg, ponazuril 10 and 20 mg/kg; low infection pressure. Here is the method:
B. Field Trial of the Efficacy of Ponazuril Compared with Toltrazuril for the Treatment of Natural Infections of Grazing Lambs with Coccidiosis:
The aim of the trials was to compare toltrazuril and ponazuril for efficacy on natural infections with pathogens of the Eimeria family.
The active ingredients were compared in three consecutive experiments: • Experiment 1: untreated control—toltrazuril 20 mg/kg—ponazuril 20 mg/kg • Experiment 2: untreated control—ponazuril 20 mg/kg • Experiment 3: untreated control—toltrazuril 20 mg/kg—ponazuril 10 mg/kg.
The oocyst excretion and the consistency of the faeces were used as main parameters. The weight of the stock was likewise checked occasionally.

Data set [4] in a line: Acute oral toxicity (LD50 rat, oral). It counts as in vivo. Particulars: for NOEL: LD50 rat, oral investigation; for LD50 rat, oral: printed in column Dosage (NOEL). Here is the method:
(§1) The following toxicity data were determined in accordance with OECD/GLP guidelines, in particular OECD 414, 401 and 408. The investigations of the teratogenicity of the compounds was carried out in accordance with the US guidelines—“Teratogenicity study”, Guidelines for Registering Pesticides in the U.S.A., U.S. Environmental Protection Agency, Hazard Evaluation: Human and 10 Domestic Animals. U.S. Federal Register, Vol. 43, paragraph 163.83-3, adopted November 1982.

The conditions of data set [5]: in vivo. The method, then: as §1
In data set [6] the test system is Isospora suis. The following applies: coccidiosis (Isospora suis) in pigs; cited from earlier work.

For `O=C1OCCN1/N=C/c1ccc([N+](=O)[O-])o1` [furazolidone], the prevention of disease result in data set [1] is recorded as “not possible to prevent disease”.
In the case of `CCCc1ncc(C[n+]2ccccc2C)c(N)n1` [amprolium], in data set [1], the prevention of disease result is listed as “not possible to prevent disease”.
For the compound `Cc1cc(-n2c(=O)[nH]c(=O)n(C)c2=O)ccc1Oc1ccc(S(=O)(=O)C(F)(F)F)cc1` [ponazuril], in data set [2] (5, 10 and 20 ppm in the feed, daily on day 10-24 or 17-24, infection day 14), the “control of the infection” value was “possible to control the infection with all dosages and treatment schedules”. In addition, the “parasitological findings (oocyst excretion and number of lesions)” value in data set [2] (early start of the treatment) is listed as “reduced the parasitological findings significantly”. Besides, the “technical parameters (body weight gain and feed conversion)” value in data set [2] (early start of the treatment) was “improved the technical parameters”. Also, the “dosage with best results” value in data set [2] (highest dosage, 20 mg of ponazuril in the feed (approx. 3.5 mg/kg of body weight and day)) is listed as “best results”. Further, the “efficacy (oocyst excretion, consistency of the faeces)” value in data set [3] is given as “completely effective”. Further, the NOEL in data set [4] was 5000 mg/kg of body weight; in data set [5] (dog), 8.3 mg/kg of body weight; in data set [5] (rabbit), 30 mg/kg of body weight; in data set [5] (rat), 90 mg/kg of body weight; in data set [5] (rat, 90 days), 11.2 mg/kg of body weight. For the same compound, the “LD50 rat, oral” value in data set [4] is >5000 mg/kg of body weight.
Take `CC[C@@]1([C@@H]2O[C@@H]([C@H]3O[C@@](O)(CO)[C@H](C)C[C@@H]3C)C[C@@H]2C)CC[C@H]([C@]2(C)CC[C@]3(C[C@H](O)[C@@H](C)[C@@H]([C@@H](C)[C@@H](OC)[C@H](C)C(=O)O)O3)O2)O1` [monensin]: in data set [1], the prevention of disease result is reported as “not possible to prevent disease”.
Turning to `Cc1cc(-n2c(=O)[nH]c(=O)n(C)c2=O)ccc1Oc1ccc(SC(F)(F)F)cc1` [toltrazuril], in data set [3], the “efficacy (oocyst excretion, consistency of the faeces)” value is “completely effective”. The NOEL in data set [4] was <1000 mg/kg of body weight; in data set [5] (dog) it was 1.5 mg/kg of body weight; in data set [5] (rabbit), 2.0 mg/kg of body weight; in data set [5] (rat), 1.0 mg/kg of body weight; in data set [5] (rat, 90 days), 1.1 mg/kg of body weight. Moreover, the “LD50 rat, oral” value in data set [4] is listed as 1600-5000 mg/kg mg/kg of body weight. The “suitability for treating coccidiosis” value in data set [6] is reported as “suitable for treating coccidiosis”.
